Values joined by “and” are separate entries in the source; they are usually repeats but may differ in a detail not shown here. Identical values can stand only once.
Key:
[1] = tested on: Biocathode MCL; test: Current production by Biocathode MCL on electrode set at 0.310 V with antibiotics; assay type: cell-based; details: ampicillin at 100 μg/ml; electrode potential set at 0.310 V
Experimental: (§1) Biocathode MCL was cultivated in artificial seawater (ASW) medium containing 27.50 g NaCl, 3.80 g MgCl2·6H2O, 6.78 g MgSO4·H2O, 0.72 g KCl, 0.62 g NaHCO3, 5.58 g CaCl2·H2O, 1.00 g NH4Cl, 0.05 g K2HPO4, and 1 ml Wolfe's Trace Mineral Solution per liter. The NaHCO3 was autoclaved in a separate sealed bottle and added after cooling to avoid precipitation. The medium was adjusted to a pH between 6.5 and 6.8 by briefly bubbling with 100% CO2. Source cultures were continuously maintained in 2 liter, 3-electrode reactors with carbon cloth as working and counter electrodes. The working electrode was poised at 0.310 V SHE (standard hydrogen electrode).
For these experiments, bioelectrochemical systems (BES) were 175 ml glass electrochemical reactors (Pine Instruments, Grove City, Pa.). Working electrodes were either 10.5 cm^2 graphite flags (Tri-Gemini, Hillside, Ill.) or carbon cloth (Fuel Cell Earth, Woburn, Mass.) cut to roughly 3.5×1.5 cm for an area of 10.5 cm^2. Counter electrodes were carbon cloth electrodes cut to approximately 3.5×1.5 cm. Graphite flags were sanded down prior to cleaning. Both carbon cloth and graphite flag electrodes were soaked overnight in 1 M hydrochloric acid, then rinsed and soaked overnight in ultrapure deionized water (MilliQ, Millipore-Sigma, Burlington, Mass.). Electrodes were suspended in the reactors from titanium wires, attached by titanium screws. […]

[2] = tested on: Biocathode MCL; test: Effect of antibiotics and cyanide on the open circuit potential (OCP) of electrodes with Biocathode MCL biofilm; assay type: cell-based
Experimental: FIGS. 3A and 3B illustrate the effect of the addition of antibiotics on the open circuit potential (OCP). […]
as §1
For these experiments, bioelectrochemical systems (BES) were 175 ml glass electrochemical reactors (Pine Instruments, Grove City, Pa.). Working electrodes were either 10.5 cm^2 graphite flags (Tri-Gemini, Hillside, Ill.) or carbon cloth (Fuel Cell Earth, Woburn, Mass.) cut to roughly 3.5×1.5 cm for an area of 10.5 cm^2. Counter electrodes were carbon cloth electrodes cut to approximately 3.5×1.5 cm. Graphite flags were sanded down prior to cleaning. Both carbon cloth and graphite flag electrodes were soaked overnight in 1 M hydrochloric acid, then rinsed and soaked overnight in ultrapure deionized water (MilliQ, Millipore-Sigma, Burlington, Mass.). Electrodes were suspended in the reactors from titanium wires, attached by titanium screws. The reference electrodes for the experiments were 3 M KCl Ag/AgCl (BASI, West Lafayette, Ind.) washed in bleach and rinsed in sterile ultrapure deionized water. All potentials are reported here as vs. SHE by adding 0.21V to the experimental potentials vs. Ag/AgCl.
Once assembled, the BES were maintained at 30° C. using water jackets and stirred using small stir bars and stir plates (VWR, Radnor, Pa., USA). The electrodes were connected to a multichannel potentiostat (Biologic, Seyssinet-Pariset, France), which was used to record cyclic voltammograms at fast (20 mV/S) and slow (0.2 mV/S) scan rates, and then to monitor the OCP or, for experiments with set potential, to hold the potential at 0.310 V and monitor current production. After the signal stabilized, the reactors were inoculated with 1 ml of initial inoculum diluted 10^−3 or 10^−4-fold. Based on the cell counts of filtered inoculum, reactors in experiment 1 were inoculated with ca. 30 or ca. 300 cells, while reactors in experiment 2 were inoculated with ca. 110 or ca. 1100 cells and reactors in experiment 3 were inoculated with 700 cells.
The effect of antibiotics on the open circuit potential was examined in order to determine whether the maintenance of the OCP was dependent on metabolically active cells. Because ampicillin kills only dividing cells (by interfering with cell wall formation^21), while kanamycin kills by interfering with translation machinery (killing bacteria that are actively manufacturing proteins^21), these antibiotics were used to determine the rough metabolic state of the cells.
To test how long the cells remained active and sensitive to antibiotics, reactors were incubated for 26 days before antibiotic additions. The inoculated reactors maintained an OCP close to 0.50 V vs. SHE during the 26-day incubation. […] Cyanide, which inhibits cytochrome function, caused an immediate drop in potential in both old and young reactors (FIGS. 3A and 3B).

[3] = added 10 days after inoculation

Compound | Current production [1] | OCP at end of drop [2, 3] | Time until OCP began dropping [2, 3] [days] | Time until OCP reduction began ([2]; added 26 days after inoculation) | Effect on OCP ([2]; added 26 days after inoculation, followed for two weeks) | Time until drop in OCP began ([2]; added 10 days after inoculation, two experiments)
CC1(C)S[C@@H]2[C@H](NC(=O)[C@H](N)c3ccccc3)C(=O)N2[C@H]1C(=O)O [ampicillin] | inhibited | return to its pre-inoculation level | 2 to 3 | two | not returning to the abiotic OCP even after two weeks | –
NC[C@H]1O[C@H](O[C@H]2[C@H](O)[C@@H](O[C@H]3O[C@H](CO)[C@@H](O)[C@H](N)[C@H]3O)[C@H](N)C[C@@H]2N)[C@H](O)[C@@H](O)[C@@H]1O [kanamycin] | – | – | – | – | – | 13 h and 10 h

Reference: patent US11881606B2, “Conductive materials to drive bacterial carbon dioxide fixation” (The Government of the United States of America, as …, priority 2019, dated 2024)
